{"source": "patent US12673039B2", "about": "“Methods of inducing autophagy using coumarin derivatives and related compounds” (Buck Institute for Research on Aging, priority 2019, dated 2026)", "key": {"[1]": {"test_system": "C. elegans", "assay": "Mitophagy and mitochondrial function in C. elegans", "type": "in vivo", "from_the_text": "FIGS. 13A-13B illustrate that coumarin 106 (“C1”, “AIC106”) promotes increased indices of mitophagy. FIG. 13A) Representative images and GFP quantification of mitochondrial content at day-5 adult worms (pges-1mtGFP; bottom) of mito::GFP reporter strains (GFP tagged to mitochondrial localizing signals) treated with C1 or DMSO control. FIG. 13B) Visualizing mitochondrial fission using mito::GFP (pmyo-3mtGFP) reporter strain. Representative GFP image shown in upper panel. Representative images (lower panel) showing mitochondrial fission after 48 hrs of C1 or control treatment (63× oil). Images converted to black & white format using NIH ImageJ software for quantification of fragmented mitochondria, denoted as white puncta here.\nFIGS. 14A-14B illustrate that coumarin 106 (“C1”, “AIC106”) results in increases in mitochondrial function. FIG. 14A) Basal and maximal respiration measured in live worms in the Seahorse following addition of C1 (50, 200 μM). Values are reported as oxygen consumption rate (OCR, pmol/min/mg protein)+/− FCCP addition; *p<0.05; **p<0.01. FIG. 14B) Sensitivity to treatment for with increasing concentrations of the mitochondrial uncoupler FCCP in the absence and presence of C1 (20, 50 μM; 1 hr). Values are reported as % of live worms per plate, *p<0.01 versus FCCP alone.\nFIG. 20, panels A-H: AIC106 treatment improves mitochondrial health. Panel A) Changes in mitochondrial membrane potential were determined by quantifying fluorescence intensity of individual TMRM stained wild type N2 worms post-24 hours treatment with AIC106 and DMSO-control. [N=3 independent experiments (mean±SD). ****p<0.0001, by unpaired t-test]. Panel B) TMRM stained wild type N2 worms were monitored by fluorescence microscopy. Panel C) Mitophagy flux upon AIC106 treatment was determined in DLM14 young adult worms (TOMM-7 tagged to a peptide linked dual-Fluorescent GFP) by quantifying relative fold changes in ratio of monomeric-fluorescent protein (mFP) to dual-fluorescent protein (dFP) compared to DMSO-control. Panel D) Ability of AIC106 to rescue mitochondrial toxin (FCCP) sensitivity was determined as percent survival of 24 hours treated AIC106 and DMSO-control wild type N2 worms. [N=3 independent experiments (mean±SD). ****p<0.0001, by two-way ANOVA with Sidak's multiple comparisons test]. Panel E) Ability of AIC106 to rescue enhanced mitochondrial toxin (FCCP, 20 μM) sensitivity in mitophagy deficient parkin/pdr-1 mutant was determined as percent survival of 24 hours treated AIC106 and DMSO-control pdr-1(tm598) and pdr-1(tm598); hlh-30(tm1978) mutant. [N=3 independent experiments (mean±SD). *p<0.05, by two-way ANOVA with Sidak's multiple comparisons test]. Panel F) Effect of AIC106 on mitochondrial biogenesis was determined by quantifying GFP fluorescence intensity in an individual SJ4143 worm (GFP targeted in mitochondria of intestinal cells) post-72 hours of treatment with AIC106 and DMSO-control. [N=3 independent experiments (mean±SD). ****p<0.0001, by unpaired t-test]. Panel G) SJ4143 worms were monitored by fluorescence microscopy. Panel H) Effects of AIC106 on basal (B) and maximum (M) mitochondrial respiration rate were determined by quantifying oxygen consumption rate (OCR) in wild type N2 and hlh-30(tm1978) mutant strain post-24 hours of treatment with AIC106 and DMSO-control. [N=3 independent experiments (mean±SD). *p<0.05, ***p<0.001 and ****p<0.0001, by one-way ANOVA with Tukey's multiple comparisons test].\nFIG. 27, panels A-C: AIC106 induces mitophagy and increases lifespan. Panel A) Relative fold change in mRNA of key mitophagy genes including dct-1, pink-1 and pdr-1 was quantified by qRT-PCR after DMSO-control and AIC106 24 hours treatment in young adult N2 and hlh-30(tm1978) mutants. [N=3 independent experiments (mean±SD). **p<0.01 and ****p<0.0001, by two-way ANOVA with Sidak's multiple comparisons test]. […]"}, "[2]": {"test_system": "TFEB", "assay": "TFEB activation screen, % activation/control at 24 and 48 hrs (Table 1)", "type": "cell-based, human", "protocol": "FIG. 25, panels A-B::AIC106 identified as a lead compound in a TFEB-transcription based screen. Panel A) Rat Neuronal N27 cells were transfected with a vector construct driving expression of secreted-Gaussia luciferase (Sec-Gaussia) in control of 2 kb human TFEB promoter. Next day, cells were seeded into 96-well cell culture plate and exposed to compounds (30 μM) from natural product library (NPL-640) or DMSO-control. After 24 and 48 hours of compound treatment supernatant from the cells was collected and TFEB promoter activity determined by quantifying luciferase activity. Panel B) Effects of AIC106 treatment on HLH-30 expression after 24 hours treatment were determined by immunoblot against GFP in young adult stage of GFP-tagged HLH-30 strain (MAH235) following total protein extraction.\nIt was discovered that small structural alterations in the C1 compound can have significant effects on the degree of TFEB activation (see, e.g., FIG. 17) the screening systems described herein identified a number of structures related to C1 that similarly induce TFEB.\nIn vitro drug screening studies. […] We utilized for these studies a 3000 compound natural product derivative library (Timtec, Newark, DE) in […] transfected with a sensitive TFEB promotor-Gaussian luciferase construct. […] C1 is a coumarin-related compound, part of a family of natural benzopyrones found in many edible plants.\nTo identify novel transcriptional inducers of TFEB, we transfected rat neuronal N27 cells with a vector driving expression of secreted-luciferase under control of the human TFEB promoter. […] AIC106 belongs to a family of coumarin compounds containing an active benzopyrone ring."}}, "data": [{"molecule": "O=c1oc2c3c4c(cc2c2c1CCC2)CCCN4CCC3", "note": "[C1, 2,3,6,7,10,11-Hexahydro-1H,5H-cyclopenta(3,4)(1)benzopyrano(6,7,8-ij)quinolizin-12(9H)-one]", "values": [{"measurement": "mitophagy flux (mFP)", "setting": "[1]; DLM14 worms (FIG. 20, panel C)", "result": "increased mFP expression"}, {"measurement": "mitophagy", "setting": "[1]; FIG. 13", "result": "elevated mitophagy"}, {"measurement": "mitochondrial health", "setting": "[1]; FIG. 14", "result": "improvement in mitochondrial health"}, {"measurement": "mRNA of mitophagy specific genes", "setting": "[1]; N2, hlh-30 dependent (FIG. 27, panel A)", "result": "elevated mRNA abundance of key mitophagy specific genes including dct-1 and pink-1"}, {"measurement": "mitochondrial membrane potential (TMRM fluorescence)", "setting": "[1]; N2 worms, 24 hours", "result": "significant decrease in the MMP"}, {"measurement": "mitochondrial content (GFP)", "setting": "[1]; SJ4143 worms, 72 hours", "result": "increased mitochondrial content"}, {"measurement": "maximum respiration capacity (OCR)", "setting": "[1]; hlh-30 mutant worms", "result": "failed to show any increase in the maximum respiration capacity"}, {"measurement": "maximum respiration capacity (OCR)", "setting": "[1]; wild type N2, 24 hours", "result": "increase maximum respiration capacity"}, {"measurement": "% activation/Control 24 hrs", "setting": "[2]; 24 hrs", "result": 350.83, "unit": "%"}, {"measurement": "% activation/Control 48 hrs", "setting": "[2]; 48 hrs", "result": 413.96, "unit": "%"}]}]}
